Experimental data from PMC11079024, “Identification of a family of species-selective complex I inhibitors as potential anthelmintics” (Nature Communications, 2024).
Where “and” joins values, the source holds several entries; their conditions need not be identical. Identical values can stand only once. Like-named read-outs stand apart in the source and are kept apart here.

Target: M. musculus (heart) complex I (Mus musculus, UniProt P03888+Q91WD5+Q9DC70)
Experiment: biochemical
Assay type: biochemical
Design: Complex I activity, dose-response data: unit not given here
Settings: for IC50: heart mitochondria; for activity at 0.0001 µM / Complex I activity, dose-response data / activity at 0.0005 µM / activity at 0.001 µM / activity at 0.0025 µM / activity at 0.005 µM / activity at 0.013 µM / activity at 0.025 µM / activity at 0.063 µM / activity at 0.125 µM / activity at 0.313 µM / activity at 0.625 µM / activity at 1.5 µM / activity at 3 µM / activity at 15 µM / activity at 37.5 µM / activity at 75 µM: M. musculus; for activity at 0.0001 µM / activity at 0.0005 µM / activity at 0.001 µM / activity at 0.0025 µM / activity at 0.005 µM / activity at 0.013 µM / activity at 0.025 µM / activity at 0.063 µM / activity at 0.125 µM / activity at 0.313 µM / activity at 0.625 µM / activity at 1.5 µM / activity at 3 µM / activity at 15 µM / activity at 37.5 µM / activity at 75 µM: read-out: Complex I activity, dose-response data
Procedure: Six 8–10-week-old C57Bl/6 female mice (Charles River) were freshly dissected, and their livers and hearts collected into separate 1.5 mL microcentrifuge tubes. Organs were flash-frozen in liquid nitrogen and stored at −80 °C prior to use. The heart of a freshly slaughtered adult cow was obtained from a local abattoir (Peel Sausage Inc.), chopped into ~1-inch cubes and collected into 50 mL falcon tubes. Falcon tubes were flash-frozen in a container of dry ice and stored at −80 °C prior to use. Isolation of mitochondria from all mammalian tissue was carried out following the protocol described above. However, due to size, the initial homogenization of tissue was performed by 15 strokes in a dounce homogenizer (mouse heart) or with several 5 s pulses in small Nutribullet blender (cow heart). All mouse protocols for mouse care and dissection were reviewed and approved by the University of Toronto Animal Care Committee, in accordance with the Canadian Council on Animal Care.
The enzymatic activities of individual ETC complexes (I-IV) were assessed spectrophotometrically in isolated mitochondria using a Varioskan LUX Multimode plate reader (ThermoFisher Scientific). Mitochondrial pellets previously isolated were thawed on ice and resuspended in ice-cold isolation buffer (250 mM sucrose, 10 mM Tris (pH 7.5), 1 mM EDTA). The BCA assay (Walker, 1994) was used to quantify the protein concentration of mitochondria suspensions; solutions were diluted to a concentration of 0.2 mg/mL for use in all assays. For the complex I assay, mitochondria pellets were freeze-thawed on ice three times to increase enzyme accessibility. […] 20 μL mitochondria suspension was then added/mixed with a pipette to initiate the reaction. Immediately following the addition of mitochondria, absorbance was measured (complex I and II: 600 nm; complex III and IV: 550 nm) in 30 s intervals over 15 min. Enzymatic activity was determined in each reaction by plotting absorbance versus time and calculating the slope of the curve during the initial linear phase of the reaction. […] Percent activity of each complex was calculated by dividing the enzyme-specific activity of each well by the enzyme-specific activity of the corresponding solvent controls.
Chemical solutions were prepared in complex I assay buffer composed of 25 mM KPi buffer (pH 7.5), 3 mg/mL bovine serum albumin (BSA), 80 μM NADH, 60 μM decylubiquinone, 160 μM DCIP, 2 μM antimycin A and 2 mM KCN.
For preliminary screens of hit compounds, compounds were screened at 100 μM; data are the average of at least three biological replicates. The complex I and II activity assays were used for additional dose-response experiments. […] For dose responses of benzimidazole analogs, data represent the average of two biological replicates. For all other dose-responses, data represent the average of at least three biological replicates.

[1] = M. musculus (heart) mitochondria, mean of replicates, read-out: percent (%) in vitro complex I activity relative to solvent control
[2] = M. musculus (heart) mitochondria, single replicate, read-out: percent (%) in vitro complex I activity relative to solvent control
[3] = dose 0.0001 µM, individual replicates (Rep)
[4] = dose 0.0005 µM, individual replicates (Rep)
[5] = dose 0.001 µM, individual replicates (Rep)
[6] = dose 0.0025 µM, individual replicates (Rep)
[7] = dose 0.005 µM, individual replicates (Rep)
[8] = dose 0.013 µM, individual replicates (Rep)
[9] = dose 0.025 µM, individual replicates (Rep)
[10] = dose 0.063 µM, individual replicates (Rep)
[11] = dose 0.125 µM, individual replicates (Rep)
[12] = dose 0.313 µM, individual replicates (Rep)
[13] = dose 0.625 µM, individual replicates (Rep)
[14] = dose 1.5 µM, individual replicates (Rep)
[15] = dose 3 µM, individual replicates (Rep)
[16] = dose 15 µM, individual replicates (Rep)
[17] = dose 37.5 µM, individual replicates (Rep)
[18] = dose 75 µM, individual replicates (Rep)

M. musculus (heart) complex I, sequence (Q91WD5 34-463): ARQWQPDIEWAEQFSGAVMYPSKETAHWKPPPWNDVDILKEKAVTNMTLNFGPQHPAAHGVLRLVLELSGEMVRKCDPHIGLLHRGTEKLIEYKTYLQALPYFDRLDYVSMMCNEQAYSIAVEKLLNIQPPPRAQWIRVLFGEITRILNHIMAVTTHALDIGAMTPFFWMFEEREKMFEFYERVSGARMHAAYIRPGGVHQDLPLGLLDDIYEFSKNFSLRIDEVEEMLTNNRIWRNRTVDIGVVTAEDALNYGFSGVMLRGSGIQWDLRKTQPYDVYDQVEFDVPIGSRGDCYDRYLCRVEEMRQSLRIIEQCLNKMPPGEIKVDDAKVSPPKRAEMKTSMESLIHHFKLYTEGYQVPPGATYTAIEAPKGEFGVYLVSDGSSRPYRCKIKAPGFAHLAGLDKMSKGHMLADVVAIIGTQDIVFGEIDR
M. musculus (heart) complex I, sequence (Q9DC70 36-224): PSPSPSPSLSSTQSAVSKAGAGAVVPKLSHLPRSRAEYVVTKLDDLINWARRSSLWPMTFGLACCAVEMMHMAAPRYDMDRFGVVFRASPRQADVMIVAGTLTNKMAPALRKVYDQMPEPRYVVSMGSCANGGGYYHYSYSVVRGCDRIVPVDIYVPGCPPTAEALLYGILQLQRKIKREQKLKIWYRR
M. musculus (heart) complex I, sequence (P03888 whole entry): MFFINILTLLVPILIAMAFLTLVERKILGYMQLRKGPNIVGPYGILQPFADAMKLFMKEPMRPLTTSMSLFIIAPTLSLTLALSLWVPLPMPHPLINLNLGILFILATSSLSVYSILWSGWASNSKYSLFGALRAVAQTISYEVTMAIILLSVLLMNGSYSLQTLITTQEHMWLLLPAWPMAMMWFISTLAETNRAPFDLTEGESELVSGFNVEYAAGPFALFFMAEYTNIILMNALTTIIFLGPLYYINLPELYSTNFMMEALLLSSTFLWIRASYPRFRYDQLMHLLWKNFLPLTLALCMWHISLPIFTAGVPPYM

COc1ccc(Cc2nccc3cc(OC)c(OC)cc23)cc1OC [Papaverine, reference compound]
remaining activity at 0.125 µM [1]: 92.5% | remaining activity at 0.125 µM [2]: 91.5% | remaining activity at 0.313 µM [1]: 89.9% | remaining activity at 0.313 µM [2]: 89.5% | remaining activity at 0.625 µM [1]: 89.4% | remaining activity at 0.625 µM [2]: 91.6% | remaining activity at 1.5 µM [1]: 78.4% | remaining activity at 1.5 µM [2]: 77.9% | remaining activity at 3 µM [1]: 63.1% | remaining activity at 3 µM [2]: 62.6% | remaining activity at 15 µM [1]: 14.4% | remaining activity at 15 µM [2]: 15.3% | remaining activity at 37.5 µM (37.5 µM, M. musculus (heart) mitochondria, mean of replicates, read-out: percent (%) in vitro complex I activity relative to solvent control): 4.29% | remaining activity at 75 µM (75 µM, M. musculus (heart) mitochondria, mean of replicates, read-out: percent (%) in vitro complex I activity relative to solvent control): 1.37% | IC50: 4.58 µM

COc1cc2c(cc1OC)C(/C=C/c1ccc(N(C)C)cc1)=NCC2 [NPD6303]
activity at 0.0001 µM (dose 0.0001 µM, Mean of replicates): 101% | Complex I activity, dose-response data [3]: 95.113 and 105.612 and 100.336 | activity at 0.0001 µM [3]: 101% | activity at 0.0005 µM (dose 0.0005 µM, Mean of replicates): 103% | Complex I activity, dose-response data [4]: 98.745 and 107.836 and 100.101 | activity at 0.0005 µM [4]: 104% | activity at 0.001 µM (dose 0.001 µM, Mean of replicates): 104% | Complex I activity, dose-response data [5]: 97.287 and 111.616 and 104.649 | activity at 0.001 µM [5]: 101% | activity at 0.0025 µM (dose 0.0025 µM, Mean of replicates): 105% | Complex I activity, dose-response data [6]: 102.935 and 109.008 and 106.731 | activity at 0.0025 µM [6]: 103% | activity at 0.005 µM (dose 0.005 µM, Mean of replicates): 104% | Complex I activity, dose-response data [7]: 104.920 and 109.298 and 99.669 | activity at 0.005 µM [7]: 102% | activity at 0.013 µM (dose 0.013 µM, Mean of replicates): 106% | Complex I activity, dose-response data [8]: 109.789 and 107.516 and 104.172 | activity at 0.013 µM [8]: 104% | activity at 0.025 µM (dose 0.025 µM, Mean of replicates): 104% | Complex I activity, dose-response data [9]: 102.950 and 107.489 and 103.259 | activity at 0.025 µM [9]: 103% | activity at 0.063 µM (dose 0.063 µM, Mean of replicates): 106% | Complex I activity, dose-response data [10]: 109.017 and 105.796 and 103.155 | activity at 0.063 µM [10]: 107% | activity at 0.125 µM (dose 0.125 µM, Mean of replicates): 104% | Complex I activity, dose-response data [11]: 107.003 and 106.214 and 101.940 | activity at 0.125 µM [11]: 102% | activity at 0.313 µM (dose 0.313 µM, Mean of replicates): 204% | Complex I activity, dose-response data [12]: 207.003 and 206.214 and 201.940 | activity at 0.313 µM [12]: 202% | activity at 0.625 µM (dose 0.625 µM, Mean of replicates): 304% | Complex I activity, dose-response data [13]: 307.003 and 306.214 and 301.940 | activity at 0.625 µM [13]: 302% | activity at 1.5 µM (dose 1.5 µM, Mean of replicates): 404% | Complex I activity, dose-response data [14]: 407.003 and 406.214 and 401.940 | activity at 1.5 µM [14]: 402% | activity at 3 µM (dose 3 µM, Mean of replicates): 98.6% | Complex I activity, dose-response data [15]: 93.765 and 96.975 and 100.381 | activity at 3 µM [15]: 103% | activity at 15 µM (dose 15 µM, Mean of replicates): 80.3% | Complex I activity, dose-response data [16]: 83.390 and 75.202 and 80.206 | activity at 15 µM [16]: 82.4% | activity at 37.5 µM (dose 37.5 µM, Mean of replicates): 54.3% | Complex I activity, dose-response data [17]: 55.014 and 49.927 and 52.999 | activity at 37.5 µM [17]: 59.2% | activity at 75 µM (dose 75 µM, Mean of replicates): 38.9% | Complex I activity, dose-response data [18]: 39.690 and 34.902 and 38.927 | activity at 75 µM [18]: 41.9% | IC50: 34.9 µM
